Measured values published in ChEMBL document CHEMBL5579809, “Exploration of bromodomain ligand-linker conjugation sites for efficient CBP/p300 heterobifunctional degrader activity” (Bioorg Med Chem Lett, 2024).
The source made the active and inactive calls. The rule behind the calls is not given here.

Tests used:
[1] = target: Protein cereblon/Bromodomain-containing protein 4 (Homo sapiens) (UniProt O60885+Q96SW2); assay: PROTAC activity at CRBN/HiBiT-tagged BRD4 in human HAP1 cells assessed as induction of BRD4 degradation measured over 24 hrs by luminescence based analysis; format: cell-based
Protein cereblon/Bromodomain-containing protein 4 (Homo sapiens), sequence (Q96SW2 whole entry, looked up, other chains not shown): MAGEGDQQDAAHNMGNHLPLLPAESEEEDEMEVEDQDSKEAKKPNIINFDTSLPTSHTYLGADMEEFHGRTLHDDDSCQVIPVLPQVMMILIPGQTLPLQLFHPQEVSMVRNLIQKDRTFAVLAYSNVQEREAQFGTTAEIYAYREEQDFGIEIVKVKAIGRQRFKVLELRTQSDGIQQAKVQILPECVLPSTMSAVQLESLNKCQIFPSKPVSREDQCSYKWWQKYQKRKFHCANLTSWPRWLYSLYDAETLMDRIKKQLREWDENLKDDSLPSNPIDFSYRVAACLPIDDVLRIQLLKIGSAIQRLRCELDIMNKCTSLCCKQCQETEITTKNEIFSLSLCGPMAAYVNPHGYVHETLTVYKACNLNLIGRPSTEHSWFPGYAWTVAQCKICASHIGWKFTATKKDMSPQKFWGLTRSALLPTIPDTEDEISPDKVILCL

[2] = target: T1, Protein cereblon/CREB-binding protein (Homo sapiens) (UniProt Q92793+Q96SW2); assay: Binding affinity to recombinant CRBN/CBP bromodomain (unknown origin) assessed as ternary complex formation at 10 to 100 nM by Alphascreen-based proximity assay; format: protein assay; conditions: dose 10-100 nM
[3] = target: T2, Protein cereblon/Histone acetyltransferase p300 (Homo sapiens) (UniProt Q09472+Q96SW2); assay: PROTAC activity at CRBN/HiBiT-tagged p300 in human HAP1 cells assessed as total cumulative degradation by measuring AUC at 1 nM measured over 24 hrs by luminescence based analysis; format: cell-based
T2 sequence (Q09472 2-2414 limits assumed): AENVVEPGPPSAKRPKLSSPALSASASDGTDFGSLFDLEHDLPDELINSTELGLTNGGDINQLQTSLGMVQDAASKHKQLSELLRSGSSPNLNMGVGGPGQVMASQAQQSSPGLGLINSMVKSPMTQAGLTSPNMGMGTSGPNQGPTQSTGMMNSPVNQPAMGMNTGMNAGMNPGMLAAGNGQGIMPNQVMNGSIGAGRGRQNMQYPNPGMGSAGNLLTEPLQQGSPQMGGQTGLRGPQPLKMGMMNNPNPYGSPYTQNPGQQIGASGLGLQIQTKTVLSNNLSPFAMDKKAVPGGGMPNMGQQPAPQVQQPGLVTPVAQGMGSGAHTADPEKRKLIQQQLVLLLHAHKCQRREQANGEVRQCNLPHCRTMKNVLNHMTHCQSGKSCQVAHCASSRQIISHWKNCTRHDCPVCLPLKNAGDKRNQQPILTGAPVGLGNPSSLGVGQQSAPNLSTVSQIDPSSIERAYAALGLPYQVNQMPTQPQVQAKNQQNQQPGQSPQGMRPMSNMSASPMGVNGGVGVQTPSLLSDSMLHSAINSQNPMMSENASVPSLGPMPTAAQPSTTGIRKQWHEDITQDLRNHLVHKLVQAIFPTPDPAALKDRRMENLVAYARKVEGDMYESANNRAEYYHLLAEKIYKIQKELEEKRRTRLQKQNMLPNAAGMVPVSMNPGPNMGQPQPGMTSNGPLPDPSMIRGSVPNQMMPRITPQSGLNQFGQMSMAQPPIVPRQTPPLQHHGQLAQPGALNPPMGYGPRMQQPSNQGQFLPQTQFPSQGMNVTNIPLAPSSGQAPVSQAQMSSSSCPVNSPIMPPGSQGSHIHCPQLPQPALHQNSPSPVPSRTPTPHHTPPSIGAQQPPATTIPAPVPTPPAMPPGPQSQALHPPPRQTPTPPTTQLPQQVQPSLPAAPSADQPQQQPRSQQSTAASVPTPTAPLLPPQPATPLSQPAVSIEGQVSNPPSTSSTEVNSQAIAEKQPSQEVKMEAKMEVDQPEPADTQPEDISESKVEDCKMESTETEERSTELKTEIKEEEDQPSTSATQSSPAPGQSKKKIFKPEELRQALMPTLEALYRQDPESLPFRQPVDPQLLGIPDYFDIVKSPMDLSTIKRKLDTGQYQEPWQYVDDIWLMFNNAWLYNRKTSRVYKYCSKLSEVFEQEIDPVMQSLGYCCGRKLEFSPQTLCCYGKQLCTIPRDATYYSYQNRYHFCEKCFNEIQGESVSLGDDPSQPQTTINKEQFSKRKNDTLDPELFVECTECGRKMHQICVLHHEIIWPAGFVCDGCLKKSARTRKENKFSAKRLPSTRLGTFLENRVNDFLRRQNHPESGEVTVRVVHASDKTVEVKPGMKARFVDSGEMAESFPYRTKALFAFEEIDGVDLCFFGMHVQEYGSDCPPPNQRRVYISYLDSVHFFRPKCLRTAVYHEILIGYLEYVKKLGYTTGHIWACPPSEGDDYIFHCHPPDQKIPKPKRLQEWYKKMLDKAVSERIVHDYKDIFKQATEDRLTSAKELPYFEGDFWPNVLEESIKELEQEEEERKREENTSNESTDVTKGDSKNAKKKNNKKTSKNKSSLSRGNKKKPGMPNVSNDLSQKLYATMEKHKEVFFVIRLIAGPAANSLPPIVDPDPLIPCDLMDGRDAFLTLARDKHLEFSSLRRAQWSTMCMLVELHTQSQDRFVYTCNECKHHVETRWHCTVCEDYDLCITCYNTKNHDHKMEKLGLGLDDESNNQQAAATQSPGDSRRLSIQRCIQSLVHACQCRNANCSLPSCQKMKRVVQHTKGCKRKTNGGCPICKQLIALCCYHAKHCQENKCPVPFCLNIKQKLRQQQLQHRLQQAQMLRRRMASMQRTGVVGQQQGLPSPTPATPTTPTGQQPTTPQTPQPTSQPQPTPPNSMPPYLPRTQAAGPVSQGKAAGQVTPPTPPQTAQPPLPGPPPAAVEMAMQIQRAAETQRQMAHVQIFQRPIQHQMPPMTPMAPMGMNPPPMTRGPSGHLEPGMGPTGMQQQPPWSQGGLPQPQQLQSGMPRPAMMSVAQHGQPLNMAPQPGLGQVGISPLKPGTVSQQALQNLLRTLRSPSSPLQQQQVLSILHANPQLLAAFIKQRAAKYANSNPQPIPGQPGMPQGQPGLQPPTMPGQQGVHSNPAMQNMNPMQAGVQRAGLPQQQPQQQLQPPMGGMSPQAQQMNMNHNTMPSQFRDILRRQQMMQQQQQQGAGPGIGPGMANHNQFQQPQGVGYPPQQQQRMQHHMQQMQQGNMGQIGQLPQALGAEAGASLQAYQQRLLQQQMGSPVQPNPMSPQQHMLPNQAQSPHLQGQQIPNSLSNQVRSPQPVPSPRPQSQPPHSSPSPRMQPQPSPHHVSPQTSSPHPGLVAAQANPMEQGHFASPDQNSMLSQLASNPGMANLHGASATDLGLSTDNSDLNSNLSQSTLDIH
T2 sequence (Q96SW2 whole entry partner): as the sequence (Q96SW2 whole entry, looked up, other chains not shown) above

[4] = target: T2, Protein cereblon/Histone acetyltransferase p300 (Homo sapiens); assay: PROTAC activity at CRBN/HiBiT-tagged p300 in human HAP1 cells assessed as total cumulative degradation by measuring AUC at 100 nM measured over 24 hrs by luminescence based analysis; format: cell-based
[5] = target: T1, Protein cereblon/CREB-binding protein (Homo sapiens); assay: PROTAC activity at CRBN/HiBiT-tagged CBP in human HAP1 cells assessed as total cumulative degradation by measuring AUC at 1000 nM measured over 24 hrs by luminescence based analysis; format: cell-based
[6] = target: T1, Protein cereblon/CREB-binding protein (Homo sapiens); assay: PROTAC activity at CRBN/HiBiT-tagged CBP in human HAP1 cells assessed as total cumulative degradation by measuring AUC at 1 nM measured over 24 hrs by luminescence based analysis; format: cell-based
[7] = target: T2, Protein cereblon/Histone acetyltransferase p300 (Homo sapiens); assay: PROTAC activity at CRBN/HiBiT-tagged p300 in human HAP1 cells assessed as total cumulative degradation by measuring AUC at 10 nM measured over 24 hrs by luminescence based analysis; format: cell-based
[8] = target: T1, Protein cereblon/CREB-binding protein (Homo sapiens); assay: PROTAC activity at CRBN/HiBiT-tagged CBP in human HAP1 cells assessed as total cumulative degradation by measuring AUC at 100 nM measured over 24 hrs by luminescence based analysis; format: cell-based
[9] = target: T2, Protein cereblon/Histone acetyltransferase p300 (Homo sapiens); assay: PROTAC activity at CRBN/HiBiT-tagged p300 in human HAP1 cells assessed as induction of p300 degradation by measuring degradation rate at 1000 nM measured over 24 hrs by luminescence based analysis; format: cell-based
[10] = target: T2, Protein cereblon/Histone acetyltransferase p300 (Homo sapiens); assay: Binding affinity to recombinant CRBN/p300 bromodomain (unknown origin) assessed as ternary complex formation at 10 to 100 nM by Alphascreen-based proximity assay; format: protein assay; conditions: dose 10-100 nM
[11] = target: T2, Protein cereblon/Histone acetyltransferase p300 (Homo sapiens); assay: PROTAC activity at CRBN/HiBiT-tagged p300 in human HAP1 cells assessed as induction of p300 degradation by measuring maximal efficacy at 1000 nM measured over 24 hrs by luminescence based analysis relative to control; format: cell-based
[12] = target: T2, Protein cereblon/Histone acetyltransferase p300 (Homo sapiens); assay: PROTAC activity at CRBN/HiBiT-tagged p300 in human HAP1 cells assessed as total cumulative degradation by measuring AUC at 0.1 nM measured over 24 hrs by luminescence based analysis; format: cell-based
[13] = target: T2, Protein cereblon/Histone acetyltransferase p300 (Homo sapiens); assay: PROTAC activity at CRBN/HiBiT-tagged p300 in human HAP1 cells assessed as total cumulative degradation by measuring AUC at 0.01 nM measured over 24 hrs by luminescence based analysis; format: cell-based
[14] = target: T1, Protein cereblon/CREB-binding protein (Homo sapiens); assay: PROTAC activity at CRBN/HiBiT-tagged CBP in human HAP1 cells assessed as total cumulative degradation by measuring AUC at 0.1 nM measured over 24 hrs by luminescence based analysis; format: cell-based
[15] = target: T1, Protein cereblon/CREB-binding protein (Homo sapiens); assay: PROTAC activity at CRBN/HiBiT-tagged CBP in human HAP1 cells assessed as total cumulative degradation by measuring AUC at 0.01 nM measured over 24 hrs by luminescence based analysis; format: cell-based
[16] = target: T1, Protein cereblon/CREB-binding protein (Homo sapiens); assay: PROTAC activity at CRBN/HiBiT-tagged CBP in human HAP1 cells assessed as total cumulative degradation by measuring AUC at 10 nM measured over 24 hrs by luminescence based analysis; format: cell-based
[17] = target: T2, Protein cereblon/Histone acetyltransferase p300 (Homo sapiens); assay: PROTAC activity at CRBN/HiBiT-tagged p300 in human HAP1 cells assessed as total cumulative degradation by measuring AUC at 1000 nM measured over 24 hrs by luminescence based analysis; format: cell-based
[18] = target: T1, Protein cereblon/CREB-binding protein (Homo sapiens); assay: PROTAC activity at CRBN/HiBiT-tagged CBP in human HAP1 cells assessed as induction of CBP degradation by measuring degradation rate at 10 nM measured over 24 hrs by luminescence based analysis; format: cell-based
[19] = target: T1, Protein cereblon/CREB-binding protein (Homo sapiens); assay: PROTAC activity at CRBN/HiBiT-tagged CBP in human HAP1 cells assessed as induction of CBP degradation by measuring degradation rate at 100 nM measured over 24 hrs by luminescence based analysis; format: cell-based
[20] = target: T2, Protein cereblon/Histone acetyltransferase p300 (Homo sapiens); assay: PROTAC activity at CRBN/HiBiT-tagged p300 in human HAP1 cells assessed as induction of p300 degradation by measuring degradation rate at 10 nM measured over 24 hrs by luminescence based analysis; format: cell-based
[21] = target: T2, Protein cereblon/Histone acetyltransferase p300 (Homo sapiens); assay: PROTAC activity at CRBN/HiBiT-tagged p300 in human HAP1 cells assessed as induction of p300 degradation by measuring maximal efficacy at 10 nM measured over 24 hrs by luminescence based analysis relative to control; format: cell-based
[22] = target: T2, Protein cereblon/Histone acetyltransferase p300 (Homo sapiens); assay: PROTAC activity at CRBN/HiBiT-tagged p300 in human HAP1 cells assessed as induction of p300 degradation by measuring degradation rate at 100 nM measured over 24 hrs by luminescence based analysis; format: cell-based
[23] = target: T1, Protein cereblon/CREB-binding protein (Homo sapiens); assay: PROTAC activity at CRBN/HiBiT-tagged CBP in human HAP1 cells assessed as induction of CBP degradation by measuring maximal efficacy at 100 nM measured over 24 hrs by luminescence based analysis relative to control; format: cell-based
[24] = target: T1, Protein cereblon/CREB-binding protein (Homo sapiens); assay: PROTAC activity at CRBN/HiBiT-tagged CBP in human HAP1 cells assessed as induction of CBP degradation by measuring maximal efficacy at 10 nM measured over 24 hrs by luminescence based analysis relative to control; format: cell-based
[25] = target: T1, Protein cereblon/CREB-binding protein (Homo sapiens); assay: PROTAC activity at CRBN/HiBiT-tagged CBP in human HAP1 cells assessed as induction of CBP degradation by measuring degradation rate at 1000 nM measured over 24 hrs by luminescence based analysis; format: cell-based
[26] = target: T2, Protein cereblon/Histone acetyltransferase p300 (Homo sapiens); assay: PROTAC activity at CRBN/HiBiT-tagged p300 in human HAP1 cells assessed as induction of p300 degradation by measuring maximal efficacy at 100 nM measured over 24 hrs by luminescence based analysis relative to control; format: cell-based
[27] = target: T1, Protein cereblon/CREB-binding protein (Homo sapiens); assay: PROTAC activity at CRBN/HiBiT-tagged CBP in human HAP1 cells assessed as induction of CBP degradation by measuring maximal efficacy at 1000 nM measured over 24 hrs by luminescence based analysis relative to control; format: cell-based
[28] = target: T2, Protein cereblon/Histone acetyltransferase p300 (Homo sapiens); assay: PROTAC activity at CRBN/HiBiT-tagged p300 in human HAP1 cells assessed as induction of p300 degradation by measuring maximal efficacy at 1 nM measured over 24 hrs by luminescence based analysis relative to control; format: cell-based
[29] = target: T1, Protein cereblon/CREB-binding protein (Homo sapiens); assay: PROTAC activity at CRBN/HiBiT-tagged CBP in human HAP1 cells assessed as induction of CBP degradation by measuring maximal efficacy at 1 nM measured over 24 hrs by luminescence based analysis relative to control; format: cell-based
[30] = target: T2, Protein cereblon/Histone acetyltransferase p300 (Homo sapiens); assay: PROTAC activity at CRBN/HiBiT-tagged p300 in human HAP1 cells assessed as induction of p300 degradation by measuring degradation rate at 1 nM measured over 24 hrs by luminescence based analysis; format: cell-based
[31] = target: T1, Protein cereblon/CREB-binding protein (Homo sapiens); assay: PROTAC activity at CRBN/HiBiT-tagged CBP in human HAP1 cells assessed as induction of CBP degradation by measuring degradation rate at 1 nM measured over 24 hrs by luminescence based analysis; format: cell-based

| Activity [1] | Activity [2] | AUC [3] | AUC [4] | AUC [5] | AUC [6] | AUC [7] | AUC [8] | Activity [9] [h⁻¹] | Activity [10] | Emax [11] [%] | AUC [12] | AUC [13] | AUC [14] | AUC [15] | AUC [16] | AUC [17] | Activity [18] | Activity [19] [h⁻¹] | Activity [20] [h⁻¹] | also measured | SMILES |
| --- | --- | --- | --- | --- | --- | --- | --- | --- | --- | --- | --- | --- | --- | --- | --- | --- | --- | --- | --- | --- | --- |
| inactive | Active | 27.4 | 24.2 | 23 | 24.5 | 26.4 | 24.1 | 0.05 | Active | 33 | 27.5 | 27.7 | 24.4 | 24.9 | 24.2 | 20.5 |  |  |  |  | CNC(=O)N1CCc2c(c(N3CCN(C(=O)NCCOCCOCCOCCOCCOCCOCCNc4ccc5c(c4)C(=O)N(C4CCC(=O)NC4=O)C5=O)c4cc(-c5cnn(C)c5)c(C(F)(F)F)cc43)nn2C2CCOCC2)C1 (stereo not given) |
| inactive | Active | 25.8 | 16.8 | 17.8 | 23.3 | 21.3 | 18 | 0.11 | Active | 55 | 26.8 | 28 | 23.4 | 22.4 | 22.2 | 15.8 | 9.7 10^-3/hr | 0.11 | 0.03 | Emax [21]: 61%; Activity [22]: 0.11 h⁻¹; Emax [23]: 42%; Emax [24]: 22%; Activity [25]: 0.12 h⁻¹; Emax [26]: 51%; Emax [27]: 42% | CNC(=O)N1CCc2c(c(N3CCCc4cc(-c5cnn(CC(=O)NCCOCCOCCOCCOCCNc6ccc7c(c6)C(=O)N(C6CCC(=O)NC6=O)C7=O)c5)c(C(F)F)cc43)nn2C2CCOCC2)C1 (stereo not given) |
| inactive | Active | 22.6 | 10.4 | 15.1 | 22.6 | 13.7 | 12.1 | 0.14 | Active | 65 | 27.3 | 25.7 | 25.5 | 24.2 | 16 | 13.5 | 0.21 h⁻¹ | 0.22 | 0.22 | Emax [28]: 18%; Emax [29]: 20%; Emax [21]: 55%; Activity [22]: 0.26 h⁻¹; Emax [23]: 63%; Emax [24]: 44%; Activity [25]: 0.12 h⁻¹; Activity [30]: 0.004 h⁻¹; Activity [31]: 1.5 10^-4/hr; Emax [26]: 69%; Emax [27]: 59% | CNC(=O)N1CCc2c(c(N3CCCc4cc(-c5cnn(CC(=O)NCCOCCNc6ccc7c(c6)C(=O)N(C6CCC(=O)NC6=O)C7=O)c5)c(C(F)F)cc43)nn2C2CCOCC2)C1 (stereo not given) |
